# Measured values from the supplement of paper PMC10307832.
# Key:
# Assay in all cases: relative viability (nuclei count vs DMSO), 5 days (fraction); higher = more cells survive
# [1] = compound: C[C@@]1(C(=O)Nc2ccc(F)nc2)CCCN1c1nc(Nc2cc(C3CC3)n[nH]2)c2cccn2n1 + C[C@]1(O)C[C@@H](c2nc(-c3ccc4ccc(-c5ccccc5)nc4c3)c3c(N)nccn32)C1 [Linsitinib] (partner 1 µM)
# How it was run: (§1)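 The day after seeding in 1536-well plates, lung cancer cell lines were treated by pin tool with a single drug, or with a fixed anchor-drug dose together with five library-drug doses (not always all listed) in √10 steps. After 5 days, a combined fix-and-stain solution (final 0.05% Triton X-100, 1% formaldehyde, 1 ug/ml Hoechst) was added. Nuclei counted on 4× images gave relative viability as treated counts over vehicle counts, reported as the median of duplicate plates.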
# [2] = compound: C[C@@]1(C(=O)Nc2ccc(F)nc2)CCCN1c1nc(Nc2cc(C3CC3)n[nH]2)c2cccn2n1 + O=C(c1cc(Cc2n[nH]c(=O)c3ccccc23)ccc1F)N1CCN(C(=O)C2CC2)CC1 [Olaparib] (partner 8 µM)
# How it was run: as §1
# [3] = compound: C[C@@]1(C(=O)Nc2ccc(F)nc2)CCCN1c1nc(Nc2cc(C3CC3)n[nH]2)c2cccn2n1 + O=C(CCCCCCC(=O)Nc1ccccc1)NO [Vorinostat] (partner 1 µM)
# How it was run: as §1
# Motesanib + Decitabine = compound: CC1(C)CNc2cc(NC(=O)c3cccnc3NCc3ccncc3)ccc21 [Motesanib] + Nc1ncn([C@H]2C[C@H](O)[C@@H](CO)O2)c(=O)n1 [Decitabine] (partner 2 µM)
# How it was run: as §1
cell line,measurement,setting,value
UMC-11,relative viability,[1]; first compound 0.04 µM,1.08
same,relative viability,[1]; first compound 0.1265 µM,0.985
same,relative viability,[1]; first compound 0.4 µM,0.957
same,relative viability,[1]; first compound 1.265 µM,1.05
same,relative viability,[2]; first compound 0.04 µM,0.376
same,relative viability,[2]; first compound 0.1265 µM,0.316
same,relative viability,[2]; first compound 0.4 µM,0.336
same,relative viability,[2]; first compound 1.265 µM,0.426
same,relative viability,[3]; first compound 0.04 µM,0.398
same,relative viability,[3]; first compound 0.1265 µM,0.432
same,relative viability,[3]; first compound 0.4 µM,0.359
same,relative viability,[3]; first compound 1.265 µM,0.258
same,relative viability,Motesanib + Decitabine; first compound 0.01 µM,0.611
same,relative viability,Motesanib + Decitabine; first compound 0.03162 µM,0.677
same,relative viability,Motesanib + Decitabine; first compound 0.1 µM,0.331
same,relative viability,Motesanib + Decitabine; first compound 0.3162 µM,0.653
same,relative viability,Motesanib + Decitabine; first compound 1 µM,0.724
